Test results published in patent US11155517B2, “4-substituted phenylamine derivatives and their use to protect crops by fighting undesired phytopathogenic micoorganisms” (PI INDUSTRIES LTD., priority 2016, dated 2021).
Read-outs that look alike come from different tables or passages of the source.

Assays:
Colletotrichum capsici = Colletotrichum capsici (anthracnose) in vitro test, radial growth on Potato Dextrose Agar; format: cell-based; settings: Colletotrichum truncatum; for inhibition at 300 ppm: Table 3 comparison, read-out: COLLCA % inhibition; for inhibition of growth at 300 ppm: 168 h, seven days, 25° C., read-out: % control compared to the untreated check (radial growth)
Fusarium culmorum [1] = assay: Fusarium culmorum (foot rot of cereals) in vitro test, radial growth on Potato Dextrose Agar; format: cell-based; settings: Fusarium culmorum; for inhibition at 300 ppm: Table 3 comparison, read-out: FUSACU % inhibition; for inhibition of growth at 300 ppm: 168 h, read-out: % control compared to the untreated check (radial growth)
Botrytis cinerea = Botrytis cinerea (gray mold) in vitro test, radial growth on Potato Dextrose Agar; format: cell-based; settings: for inhibition at 300 ppm: read-out: BOTRCI % inhibition; for inhibition of growth at 300 ppm: 168 h, seven days, 22° C., read-out: % (control) compared to the untreated check (radial growth)
Alternaria solani [2] = assay: Alternaria solani (early blight of tomato/potato) in vitro test, radial growth on Potato Dextrose Agar; format: cell-based; settings: for inhibition at 300 ppm: Table 3 comparison, read-out: ALTESO % inhibition; for inhibition of growth at 300 ppm: 168 h, seven days, 25° C., read-out: % control compared to the untreated check (radial growth)
Pyricularia oryzae [3] = assay: microbe, parasite or virus in culture; format: cell-based; settings: for inhibition at 300 ppm: read-out: PYRIOR % inhibition; for inhibition of growth at 300 ppm: 168 h, read-out: % control compared to the untreated check (radial growth)
Rhizoctonia solani = Rhizoctonia solani (rice sheath blight/potato black scurf) in vitro test, radial growth on Potato Dextrose Agar; format: cell-based; settings: for inhibition at 300 ppm: Table 3 comparison, read-out: RHIZSO % inhibition; for inhibition of growth at 300 ppm: 168 h, seven days, 25° C., read-out: % control compared to the untreated check (radial growth)
Corynespora cassicola = assay: Table 3 comparative % inhibition, Corynespora cassicola (CORYCA); format: cell-based; settings: Table 3 comparison
Septoria lycopersici = Septoria lycopersici (leaf spot of tomato) in vitro test, radial growth on Potato Dextrose Agar; format: cell-based; settings: 168 h, seven days, 25° C., read-out: % control compared to the untreated check (radial growth)
Botrytis cinera = assay: Greenhouse Botrytis cinera test in tomato, preventive; format: in vivo; settings: 24 h, plants sprayed one day before inoculation, read-out: Efficacy (% control), disease severity vs untreated check
Alternaria solani [4] = assay: Greenhouse Alternaria solani test in tomato, preventive; format: in vivo; settings: 24 h, tomato plants sprayed one day before inoculation, read-out: Efficacy (% control), disease severity vs untreated check
Procedure, shortened: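 Preventive test: greenhouse tomato plants sprayed with compounds (2% DMSO/acetone in water) at stated rates, inoculated one day later with Alternaria solani spores (0.24×10^6 in 2% malt), held at 22-24 °C, 90-95% RH. % control versus untreated plants; phytotoxicity also scored.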

Pyricularia oryzae [5] = assay: whole plant or invertebrate; format: in vivo; settings: 24 h, read-out: Efficacy (% control), disease severity vs untreated check
Fusarium culmorum [6] = assay: Greenhouse Fusarium culmorum test in wheat, preventive; format: in vivo; settings: 24 h, read-out: Efficacy (% control), disease severity vs untreated check
Procedure, shortened: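 Young greenhouse wheat sprayed preventively at stated rates (compounds in 2% DMSO/acetone, diluted in water), inoculated one day later with 2×10^6 Fusarium culmorum spores in 2% malt, held at 24 °C, 80-90% RH. Disease severity (0-100%) rated 3, 7, 10 and 15 days after application; % control versus untreated, phytotoxicity also recorded.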

[7] = Dose 300 ppm, Table 3 comparison

SMILES | inhibition at 300 ppm (Colletotrichum capsici) | inhibition at 300 ppm (Fusarium culmorum [1]) | inhibition at 300 ppm (Botrytis cinerea; [7]) | inhibition at 300 ppm (Alternaria solani [2]) | inhibition at 300 ppm (Pyricularia oryzae [3]) | inhibition at 300 ppm (Rhizoctonia solani) | inhibition at 300 ppm (Corynespora cassicola) | inhibition of growth at 300 ppm (Colletotrichum capsici) | inhibition of growth at 300 ppm (Fusarium culmorum [1]) | inhibition of growth at 300 ppm (Botrytis cinerea) | inhibition of growth at 300 ppm (Alternaria solani [2]) | inhibition of growth at 300 ppm (Pyricularia oryzae [3]) | inhibition of growth at 300 ppm (Rhizoctonia solani) | inhibition of growth at 300 ppm (Septoria lycopersici) | pest or weed control at 500 ppm (Botrytis cinera) | pest or weed control at 500 ppm (Alternaria solani [4]) | pest or weed control at 500 ppm (Pyricularia oryzae [5]) | inhibition at 300 ppm (Botrytis cinerea) | pest or weed control at 500 ppm (Fusarium culmorum [6])
CCN(C)C=Nc1cc(C)c(C(C#N)c2cccc(C(F)(F)F)c2)cc1C (stereo not shown) [N′-(4-(cyano(3-(trifluoromethyl)phenyl)methyl)-2,5-dimethylphenyl)-N-ethyl-N-methylformimidamide] | 100% | 0% | 100% | 100% | 100% | 100% | 64.4% |  |  |  |  |  |  |  |  |  |  |  | 
Cc1cc(C(C#N)c2cccc(C(F)(F)F)c2)c(C)cc1N=CN(C)C (stereo not shown) [N′-(4-(cyano(3-(trifluoromethyl)phenyl)methyl)-2,5-dimethylphenyl)-N,N-dimethylformimidamide, reference compound] | 41.3% | 0% | 77.3% | 79.8% | 100% | 80.9% | 58.7% |  |  |  |  |  |  |  |  |  |  |  | 
CCN(C)C=Nc1cc(C)c(Cc2ccccc2F)cc1C [Compound 15, N-ethyl-N′-(4-(2-fluorobenzyl)-2,5-dimethylphenyl)-N-methylformimidamide] | 100% | 100% | 100% | 100% | 100% | 100% | 100% | > 80% | 75% | > 80% | > 75% | > 75% | > 80% | > 70% | 70 to 100% |  |  |  | 
CCN(C)C=Nc1cc(C)c(Cc2ccc(C#N)cc2)cc1C [Compound 48, N′-(4-(4-cyanobenzyl)-2,5-dimethylphenyl)-N-ethyl-N-methylformimidamide] |  |  |  |  |  |  |  | > 80% | 75% | > 80% | > 75% | > 75% | > 80% | > 70% |  | 70 to 100% | 70 to 100% |  | 
CCN(C)C=Nc1cc(C)c(Cc2ccccc2)cc1Cl [Compound 74, N′-(4-benzyl-2-chloro-5-methylphenyl)-N-ethyl-N-methylformimidamide] | 100% | 94.5% |  | 100% | 100% | 100% | 71.2% | > 80% | 75% | > 80% | > 75% | > 75% | > 80% | > 70% |  |  |  | 94.5% | 
CCN(C)C=Nc1cc(C)c(Cc2ccccc2F)cc1Cl [Compound 16, N′-(2-chloro-4-(2-fluorobenzyl)-5-methylphenyl)-N-ethyl-N-methylformimidamide] | 100% | 100% | 100% | 100% | 100% | 100% | 100% | > 80% | 75% | > 80% | > 75% | > 75% | > 80% | > 70% |  |  |  |  | 70 to 100%
CCN(C)C=Nc1cc(C)c(Cc2ccccc2)cc1C [Compound 1, N′-(4-benzyl-2,5-dimethylphenyl)-N-ethyl-N-methylformimidamide] | 100% | 100% | 100% | 100% | 100% | 100% | 100% | > 80% | 75% | > 80% | > 75% | > 75% | > 80% | > 70% | 70 to 100% |  |  |  | 70 to 100%
CCN(C)C=Nc1cc(Cl)c(Cc2cccc(C(F)(F)F)c2)cc1Cl [Compound 183, N′-(2,5-dichloro-4-(3-(trifluoromethyl)benzyl)phenyl)-N-ethyl-N-methylformimidamide] |  |  |  |  |  |  |  |  |  | > 80% |  | > 75% | > 80% |  |  |  | 70 to 100% |  | 70 to 100%
